Starred links: 1 amine or outer side, 2 acyl side, 3 side chain; linkers in the order of their positions; H or OH if unused. Residues, ends and D or L forms follow the SMILES beside them. *: point of attachment. Doxorubicin(3'-N) = COc1cccc2c1C(=O)c1c(O)c3c(c(O)c1C2=O)C[C@@](O)(C(=O)CO)C[C@@H]3O[C@H]1C[C@H](N*)[C@H](O)[C@H](C)O1; Suc = O=C(CCC(=O)[*:2])[*:1]
Tests used:
[1] = Pharmacokinetics in plasma; format: in vivo, mouse; conditions: ICR female mice, 10 mg kg^−1 DOX content i.v.
Method: The drug contents were quantified by HPLC (1260 Infinity II, Agilent, USA) as described in the methods of characterization in Supporting Information and the pharmacokinetic parameters were analyzed using the Phoenix WinNonlin 8.3.5 software.

MCF‐7 cells = assay: CCK-8 cell viability assay, MCF-7; format: cell-based, human; conditions: MCF-7, 24 h
Method: MDA‐MB‐231 cells were incubated in 96‐well plates for 24 h (1 × 10^4 cells per well). […] At the appointed time, 10 µL CCK‐8 solution was dropped into each well and further co‐incubated with treated cells for 2 h. The absorbance values at 450 nm were measured by an automated plate reader (iMark (168‐1130), Biorad, USA). The IC50 values were obtained from Microsoft Excel's FORECAST formula.
breast cancer cell line MCF-7 after 24 h incubation. Data are presented as means ±
standard deviations (n = 3).
(1 picture or pasted object on this page, not shown here)

[2] = Morphological transformation / particle size by DLS and TEM in PBS of different pH; format: physicochemical; conditions: DLS
MDA‐MB‐231 cells [3] = assay: Flow cytometry: cellular uptake and cellular MMPs-responsive drug release; format: cell-based, human
Method: MDA‐MB‐231 cells were plated in 6‐well plates (2 × 10^5 cells per well) for 24 h. […] The mean fluorescence intensity (MFI) of 1 × 10^4 cells was detected by flow cytometry (FACSCalibur, BD, USA). Besides, 5 mM ethylenediaminetetraacetic acid (EDTA) purchased from Sigma was used as a model inhibitor to inhibit MMPs activity.

MDA‐MB‐231 cells [4] = assay: Transwell invasion assay (Matrigel); format: cell-based, human; conditions: MDA-MB-231, Matrigel transwell, 1 µg mL^−1 in lower chamber, 24 h, versus PBS group, n = 3
Method: 1 × 10^6 MDA‐MB‐231 cells were suspended on the top chambers of the transwell with Matrigel. Cells were cultured in DMEM without FBS overnight. […] After incubation for 24 h, the cells on the upper wells were cautiously erased with a cotton swab. Cells on the lower surface were fixed with 4% PFA and stained with crystal violet. After multiple washing with PBS, the cells that passed through the membrane were recorded with a microscope (DFC 450C, Leica, Germany).

MDA‐MB‐231 cells [5] = assay: Wound healing experiment; format: cell-based, human
Method: Wound healing culture inserts were tightly stuck on 12‐well plates and 2 × 10^4 MDA‐MB‐231 cells were seeded in the gap of the culture inserts to incubate for 24 h. […] After incubation for 12 and 24 h, the wound healing area was photographed by a microscope (DFC 450C, Leica, Germany).

[6] = test system: MDA‐MB‐231 metastasis model; assay: Anti-metastasis evaluation, MDA-MB-231 metastasis model; format: in vivo, mouse; conditions: MDA-MB-231-luc i.v. model
Excerpt: All the animal experimental procedures were recognized and approved by the Regional Ethics Committee for Animal Experiments at Ningbo University, China (Permit NO. SYXK (Zhe) 2019‐0005). The triple‐negative breast cancer (TNBC) xenograft tumors were established on female BALB/c nude mice (≈15 g) by subcutaneous injection of MDA‐MB‐231 cells (5 × 10^6 cells in each mouse). TNBC metastasis models were constructed by injecting MDA‐MB‐231‐luc cells (1 × 10^5 cells in each mouse) through the tail vein to female BALB/c nude mice. The day that MDA‐MB‐231‐luc was injected was set as D0. In vivo imaging system (IVIS) (Lumina XRMS Ш, PerkinElmer, USA) was utilized to identify the tumor metastasis at D12.
For the TNBC metastasis model, two kinds of treatments were developed. […] After seven times of injections, continued observation of the mice was carried out. […] In vivo imaging system (IVIS Lumina XRMS Ш, PerkinElmer, USA) was utilized again to estimate the tumor metastasis at D26. Meanwhile, the mice were sacrificed and the main organs (heart, livers, spleen, lung, and kidney) were separated for histological analysis.

[7] = MDA-MB-231, 40 µg mL^−1, 1 h 37 °C, endocytosis inhibitors, flow cytometry MFI

## CC[C@H](C)[C@H](NC(=O)[C@@H]1CCCN1C(=O)[C@H](CC(N)=O)NC(=O)[C@H](CC(N)=O)NC(=O)[C@H](Cc1ccc(O)cc1)NC(=O)[C@H](Cc1c[nH]cn1)NC(=O)[C@H](CCCNC(=N)N)NC(=O)CNC(=O)[C@H](CCCNC(=N)N)NC(=O)[C@@H](NC(=O)CNC(=O)[C@H](CC(C)C)NC(=O)[C@@H]1CCCN1C(=O)CCC(=O)N[C@H]1C[C@H](O[C@H]2C[C@](O)(C(=O)CO)Cc3c(O)c4c(c(O)c32)C(=O)c2c(OC)cccc2C4=O)O[C@@H](C)[C@H]1O)C(C)C)C(=O)N[C@@H](Cc1c[nH]c2ccccc12)C(=O)N[C@@H](CCCNC(=N)N)C(=O)N[C@@H](CCC(N)=O)C(=O)N[C@@H](CCCNC(=N)N)C(=O)N[C@@H](Cc1ccc(O)cc1)C(N)=O [DOX‐P18] ({Doxorubicin(3'-N)-Suc}-PLGVRGRHYNNPIWRQRY-NH2)
[1]
  Plasma clearance (CL) relative to DOX: 1/4
  Total plasma concentration (AUC) relative to DOX: four times higher
MCF‐7 cells
  IC50 (cytotoxicity), in words: higher
[2]; PBS buffer pH 7.4
  Aggregation state (particle size distribution): nanoparticles could only be detected
[2]; PBS, neutral and weakly acidic media (pH ≤ 6.5; 6.5, 6.0, 5.0)
  Aggregation state (particle size distribution): monomolecular dispersion
MDA‐MB‐231 cells [3]; MDA-MB-231, 40 µg mL^−1 (by DOX content), DMEM 10% FBS, 1 h, 4 °C, flow cytometry, n = 3
  Cellular uptake at 4 °C (MFI): strongly suppressed
MDA‐MB‐231 cells [3]; MDA-MB-231, 40 µg mL^−1, 1 h 37 °C, Y1R antagonist BIBP3304 20 µM, flow cytometry MFI
  Share of uptake by Y1R-mediated endocytosis: 20%
MDA‐MB‐231 cells [3]; [7]
  Share of uptake by caveolin-mediated endocytosis: 14%
  Share of uptake by micropinocytosis: 27%
MDA‐MB‐231 cells [3]; MDA-MB-231, 48 h, without vs with 5 mM EDTA (MMPs inhibited), flow cytometry, n = 3
  Cell fluorescence intensity relative to EDTA-treated group (cellular drug release): almost three times higher
MDA‐MB‐231 cells [4]
  Inhibition on cell invasion: 50%
MDA‐MB‐231 cells [5]; MDA-MB-231, 5 µg mL^−1, 12 h, PBS group 50.8%
  Wound healing rate: 40.3%
MDA‐MB‐231 cells [5]; MDA-MB-231, 5 µg mL^−1, 24 h, PBS group defined as 100%
  Wound healing rate (coverage rate): 71.5%
[6]; 25 mg kg^−1 DOX-P18 (5 mg kg^−1 DOX) seven times every 2 days from D0
  Lung metastasis, prevention schedule (histology D26): limited number
[6]; 25 mg kg^−1 DOX-P18 (5 mg kg^−1 DOX) seven times every 2 days from D14
  Lung and bone metastasis, treatment schedule (histology D26): significant metastasis inhibition

From publication PMC10375191, “Transformable Neuropeptide Prodrug with Tumor Microenvironment Responsiveness for Tumor Growth and Metastasis Inhibition of Triple‐Negative Breast Cancer” (Advanced Science, 2023)
